Data reported in ChEMBL document CHEMBL1154368, “Benzothiazoles as Rho-associated kinase (ROCK-II) inhibitors” (Bioorg Med Chem Lett, 2009).
pIC50: −log10 of the molar value.

Columns and labels:
[1] = Selectivity for ROCK2 over PKA
[2] = target: T1, Rho-associated protein kinase 2 (Homo sapiens, UniProt O75116); experiment: Inhibition of ROCK2
[3] = Inhibition of PKA
[4] = target: T1, Rho-associated protein kinase 2
Description: Inhibition of ROCK2 assessed as myosin light chain phosphorylation by cell-based assay

[5] = target: Rho-associated protein kinase 1 (Homo sapiens, UniProt Q13464); experiment: Inhibition of ROCK1
Rho-associated protein kinase 1, sequence (Q13464 whole entry): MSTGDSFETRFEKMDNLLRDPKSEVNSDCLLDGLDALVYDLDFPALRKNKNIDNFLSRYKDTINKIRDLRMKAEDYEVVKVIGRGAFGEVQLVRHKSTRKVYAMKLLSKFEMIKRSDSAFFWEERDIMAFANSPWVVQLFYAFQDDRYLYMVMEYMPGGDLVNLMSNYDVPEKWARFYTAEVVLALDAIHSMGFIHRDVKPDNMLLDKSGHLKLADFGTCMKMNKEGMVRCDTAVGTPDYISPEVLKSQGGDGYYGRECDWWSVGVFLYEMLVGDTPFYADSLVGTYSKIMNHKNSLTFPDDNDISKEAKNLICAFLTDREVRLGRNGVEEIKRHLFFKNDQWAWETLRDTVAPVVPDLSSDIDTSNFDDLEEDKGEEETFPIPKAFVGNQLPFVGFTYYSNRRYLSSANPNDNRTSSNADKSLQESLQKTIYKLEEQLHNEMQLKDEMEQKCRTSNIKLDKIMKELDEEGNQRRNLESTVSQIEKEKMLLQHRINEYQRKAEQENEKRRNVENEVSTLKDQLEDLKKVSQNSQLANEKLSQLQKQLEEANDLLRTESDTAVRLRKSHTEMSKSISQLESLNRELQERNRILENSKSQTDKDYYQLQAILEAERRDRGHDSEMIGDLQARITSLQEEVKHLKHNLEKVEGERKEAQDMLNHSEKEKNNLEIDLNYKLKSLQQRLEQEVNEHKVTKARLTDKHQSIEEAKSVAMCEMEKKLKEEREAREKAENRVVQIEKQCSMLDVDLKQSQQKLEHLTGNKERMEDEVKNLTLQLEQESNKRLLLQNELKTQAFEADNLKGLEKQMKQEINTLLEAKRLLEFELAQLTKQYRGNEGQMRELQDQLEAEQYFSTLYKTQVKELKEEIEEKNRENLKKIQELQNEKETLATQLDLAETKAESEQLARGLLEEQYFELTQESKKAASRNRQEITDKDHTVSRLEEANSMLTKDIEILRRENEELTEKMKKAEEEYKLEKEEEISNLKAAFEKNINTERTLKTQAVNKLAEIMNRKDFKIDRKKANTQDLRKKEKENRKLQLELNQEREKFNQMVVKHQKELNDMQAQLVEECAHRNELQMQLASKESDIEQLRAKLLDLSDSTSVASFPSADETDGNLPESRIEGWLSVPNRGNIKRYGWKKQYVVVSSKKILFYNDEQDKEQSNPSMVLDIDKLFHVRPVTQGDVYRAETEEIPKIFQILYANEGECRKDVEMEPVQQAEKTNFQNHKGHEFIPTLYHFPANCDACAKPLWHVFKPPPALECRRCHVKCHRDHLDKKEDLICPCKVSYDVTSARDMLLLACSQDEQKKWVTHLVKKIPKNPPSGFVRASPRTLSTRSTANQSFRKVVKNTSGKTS

[6] = target: Serine/threonine-protein kinase MRCK alpha (Homo sapiens, UniProt Q5VT25); experiment: Inhibition of MRCKalpha
Serine/threonine-protein kinase MRCK alpha, sequence (Q5VT25 whole entry): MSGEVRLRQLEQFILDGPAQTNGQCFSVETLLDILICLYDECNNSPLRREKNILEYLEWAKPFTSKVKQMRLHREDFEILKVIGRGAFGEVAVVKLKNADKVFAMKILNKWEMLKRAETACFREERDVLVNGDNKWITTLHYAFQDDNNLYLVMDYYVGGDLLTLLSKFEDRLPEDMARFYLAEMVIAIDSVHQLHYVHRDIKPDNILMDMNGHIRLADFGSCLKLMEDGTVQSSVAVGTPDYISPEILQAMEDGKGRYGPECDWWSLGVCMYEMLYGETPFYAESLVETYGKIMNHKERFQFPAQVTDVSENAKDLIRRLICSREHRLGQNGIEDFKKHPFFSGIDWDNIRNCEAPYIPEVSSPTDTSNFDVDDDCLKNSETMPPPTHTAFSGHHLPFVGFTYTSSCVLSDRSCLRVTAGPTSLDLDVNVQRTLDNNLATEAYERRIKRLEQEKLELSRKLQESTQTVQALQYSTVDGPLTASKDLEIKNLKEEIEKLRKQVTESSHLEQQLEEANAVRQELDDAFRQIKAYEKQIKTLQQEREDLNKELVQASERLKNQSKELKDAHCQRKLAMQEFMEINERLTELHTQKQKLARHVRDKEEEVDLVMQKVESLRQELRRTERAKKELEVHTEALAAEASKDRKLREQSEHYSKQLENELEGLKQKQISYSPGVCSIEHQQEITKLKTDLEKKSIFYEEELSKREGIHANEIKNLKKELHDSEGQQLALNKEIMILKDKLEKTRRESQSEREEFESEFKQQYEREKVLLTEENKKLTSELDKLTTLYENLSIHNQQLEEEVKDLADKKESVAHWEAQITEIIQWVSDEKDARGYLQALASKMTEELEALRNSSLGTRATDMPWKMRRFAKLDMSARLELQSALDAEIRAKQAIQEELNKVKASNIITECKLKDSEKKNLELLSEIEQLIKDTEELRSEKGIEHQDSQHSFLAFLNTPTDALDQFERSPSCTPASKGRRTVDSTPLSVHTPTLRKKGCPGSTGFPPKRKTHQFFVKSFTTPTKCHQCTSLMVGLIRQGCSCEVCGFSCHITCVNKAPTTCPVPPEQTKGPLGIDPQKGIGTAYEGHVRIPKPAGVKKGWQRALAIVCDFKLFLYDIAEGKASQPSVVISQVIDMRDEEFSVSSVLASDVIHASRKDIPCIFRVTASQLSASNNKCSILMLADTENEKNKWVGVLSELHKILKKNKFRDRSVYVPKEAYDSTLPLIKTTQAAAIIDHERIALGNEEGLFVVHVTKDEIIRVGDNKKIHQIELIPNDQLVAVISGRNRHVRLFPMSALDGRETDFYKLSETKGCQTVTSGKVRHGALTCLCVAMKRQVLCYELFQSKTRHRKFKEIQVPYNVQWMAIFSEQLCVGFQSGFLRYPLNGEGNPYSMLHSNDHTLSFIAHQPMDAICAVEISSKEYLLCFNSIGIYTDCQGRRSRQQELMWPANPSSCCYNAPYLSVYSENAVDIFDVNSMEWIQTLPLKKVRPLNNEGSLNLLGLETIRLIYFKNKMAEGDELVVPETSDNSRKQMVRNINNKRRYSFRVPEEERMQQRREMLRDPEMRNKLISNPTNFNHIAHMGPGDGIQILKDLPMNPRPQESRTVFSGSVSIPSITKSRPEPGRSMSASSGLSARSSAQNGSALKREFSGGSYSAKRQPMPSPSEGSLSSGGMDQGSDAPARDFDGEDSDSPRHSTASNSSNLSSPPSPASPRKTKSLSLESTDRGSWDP

[7] = target: Mitogen-activated protein kinase 10 (Homo sapiens, UniProt P53779); experiment: Inhibition of JNK3
Mitogen-activated protein kinase 10, sequence (P53779 whole entry): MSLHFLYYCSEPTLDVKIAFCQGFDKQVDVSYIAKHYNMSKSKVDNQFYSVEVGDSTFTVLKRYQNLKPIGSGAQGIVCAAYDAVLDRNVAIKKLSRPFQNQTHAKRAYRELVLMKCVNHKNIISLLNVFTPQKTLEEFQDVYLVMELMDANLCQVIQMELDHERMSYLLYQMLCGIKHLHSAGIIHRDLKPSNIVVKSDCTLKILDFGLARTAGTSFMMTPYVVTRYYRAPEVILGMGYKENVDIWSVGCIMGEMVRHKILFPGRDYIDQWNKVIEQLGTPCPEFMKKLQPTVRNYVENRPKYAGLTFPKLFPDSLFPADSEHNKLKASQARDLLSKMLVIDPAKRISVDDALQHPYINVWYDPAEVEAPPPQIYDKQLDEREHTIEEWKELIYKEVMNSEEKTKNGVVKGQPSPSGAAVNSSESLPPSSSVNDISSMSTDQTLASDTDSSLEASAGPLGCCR

[8] = Inhibition of p38
[9] = Metabolic stability in human liver microsomes assessed as half life; type: ADME, Microsome
[10] = Oral bioavailability in rat; type: ADME, organism-based; conditions: in vivo
[11] = Clearance in rat; type: ADME, organism-based; conditions: in vivo
[12] = Metabolic stability in rat liver microsomes assessed as half life; type: ADME, Microsome

T1 sequence (O75116 whole entry): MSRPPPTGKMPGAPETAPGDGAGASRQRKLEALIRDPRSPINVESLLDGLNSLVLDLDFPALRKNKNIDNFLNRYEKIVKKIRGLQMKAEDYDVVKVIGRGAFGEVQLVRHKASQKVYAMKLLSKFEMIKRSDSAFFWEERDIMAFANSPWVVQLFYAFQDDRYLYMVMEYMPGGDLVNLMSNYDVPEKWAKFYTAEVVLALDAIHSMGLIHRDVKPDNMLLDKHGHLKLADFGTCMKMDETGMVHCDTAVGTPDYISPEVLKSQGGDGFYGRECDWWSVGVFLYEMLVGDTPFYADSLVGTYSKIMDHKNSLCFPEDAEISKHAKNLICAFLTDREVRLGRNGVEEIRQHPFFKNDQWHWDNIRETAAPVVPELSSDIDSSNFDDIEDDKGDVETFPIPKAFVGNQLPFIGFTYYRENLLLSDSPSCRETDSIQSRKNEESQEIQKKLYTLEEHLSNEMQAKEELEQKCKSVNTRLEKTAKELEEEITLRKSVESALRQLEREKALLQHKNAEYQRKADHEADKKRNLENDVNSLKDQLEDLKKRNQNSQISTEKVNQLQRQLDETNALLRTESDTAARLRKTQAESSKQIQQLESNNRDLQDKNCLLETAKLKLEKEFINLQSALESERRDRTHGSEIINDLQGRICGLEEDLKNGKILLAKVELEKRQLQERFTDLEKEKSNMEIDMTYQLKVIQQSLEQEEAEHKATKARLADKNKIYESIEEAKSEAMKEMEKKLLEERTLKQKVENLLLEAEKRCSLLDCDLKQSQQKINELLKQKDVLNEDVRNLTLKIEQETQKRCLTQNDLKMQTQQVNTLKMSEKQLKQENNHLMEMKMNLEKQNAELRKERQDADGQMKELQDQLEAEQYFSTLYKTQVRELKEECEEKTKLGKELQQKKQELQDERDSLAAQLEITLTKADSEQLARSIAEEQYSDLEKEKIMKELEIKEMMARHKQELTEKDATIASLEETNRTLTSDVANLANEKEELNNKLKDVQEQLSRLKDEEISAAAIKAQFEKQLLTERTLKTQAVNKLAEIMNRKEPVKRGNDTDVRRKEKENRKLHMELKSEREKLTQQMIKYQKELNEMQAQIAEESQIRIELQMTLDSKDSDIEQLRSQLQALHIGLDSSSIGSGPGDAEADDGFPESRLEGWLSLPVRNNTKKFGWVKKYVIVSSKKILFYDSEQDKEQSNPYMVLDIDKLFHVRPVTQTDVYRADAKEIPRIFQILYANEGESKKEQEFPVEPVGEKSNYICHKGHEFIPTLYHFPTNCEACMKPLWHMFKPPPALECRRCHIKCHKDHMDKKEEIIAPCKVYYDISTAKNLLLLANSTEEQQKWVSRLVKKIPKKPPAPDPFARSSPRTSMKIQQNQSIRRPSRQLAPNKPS

SMILES | Selectivity ratio [1] | pIC50 [2] | pIC50 [3] | pIC50 [4] | also measured
c1ccc2c(c1)CC(c1nc3ccc(-c4ccncc4)cc3s1)CO2 (centres undefined) | 25 | 7.38 | 5.96 | – | –
CCN(Cc1cccc(OC)c1)C(=O)c1nc2ccc(-c3cn[nH]c3)cc2s1 | – | 7.59 | 4.79 | 6.34 | pIC50 [5]: 6.74; pIC50 [6]: 5.10; pIC50 [7]: < 4.70; pIC50 [8]: < 4.70
CN(C)CCCNC(=O)c1ccc2c(c1)CC(c1nc3ccc(-c4cn[nH]c4)cc3s1)CO2 (centres undefined) | 847 | 9.05 | 6.12 | > 8.40 | half-life [9]: 34 min; pIC50 [5]: 8.70; pIC50 [6]: 5.02; pIC50 [7]: 5.26; pIC50 [8]: < 4.70
COc1cccc(CN(C)C(=O)c2nc3ccc(-c4cn[nH]c4)cc3s2)c1 | – | 7.23 | < 4.70 | – | –
O=C(NCc1ccccc1)c1nc2ccc(-c3cn[nH]c3)cc2s1 | – | 7.28 | 5.33 | – | –
COc1cccc(CNC(=O)c2nc3ccc(-c4cn[nH]c4)cc3s2)c1 | 300 | 7.74 | 5.28 | < 5.57 | –
Cc1cc(-c2ccc3nc(C4COc5ccccc5C4)sc3c2)ccn1 (centres undefined) | – | 5.92 | 5.10 | – | –
O=C(NCc1cccc(F)c1)c1nc2ccc(-c3cn[nH]c3)cc2s1 | – | 7.14 | 5.57 | – | –
COCCN(Cc1cccc(OC)c1)C(=O)c1nc2ccc(-c3cn[nH]c3)cc2s1 | – | 8.00 | < 4.70 | 6.06 | –
CN(C)CCNC(=O)c1ccc2c(c1)CC(c1nc3ccc(-c4cn[nH]c4)cc3s1)CO2 (centres undefined) | 83 | 8.15 | 6.24 | 7.70 | half-life [9]: 35 min
COc1cccc(CN(CCN(C)C)C(=O)c2nc3ccc(-c4cn[nH]c4)cc3s2)c1 | > 100 | 9.40 | 7.35 | > 8.22 | half-life [9]: 15 min; pIC50 [5]: 8.46; pIC50 [6]: 6.61; pIC50 [7]: 4.86; pIC50 [8]: < 4.70; bioavailability [10]: 0%; clearance [11]: 50 mL/min/kg
Nc1nccc(-c2ccc3nc(C4COc5ccccc5C4)sc3c2)n1 (centres undefined) | 17 | 8.05 | 6.81 | 5.82 | half-life [9]: 47 min; half-life [12]: 23 min
COc1cccc(CN(C(=O)c2nc3ccc(-c4cn[nH]c4)cc3s2)C2CC2)c1 | – | 7.03 | 4.71 | – | –

Second part, led by results:

Selectivity ratio [1] | pIC50 [2] | pIC50 [3] | pIC50 [4] | SMILES | also measured
12 | 7.29 | 6.15 | 6.44 | CN(C)CCN(C)c1cc(-c2cn[nH]c2)cc2sc(C3COc4ccccc4C3)nc12 (centres undefined) | –
43 | 7.85 | 6.19 | < 5.57 | Fc1cc(-c2cn[nH]c2)cc2sc(C3COc4ccccc4C3)nc12 (centres undefined) | –
– | 7.33 | 6.27 | < 5.57 | Fc1cc2nc(C3COc4ccccc4C3)sc2cc1-c1cn[nH]c1 (centres undefined) | –
– | 6.50 | < 5.30 | – | c1ccc2c(c1)CC(c1nc3c(OCCN4CCOCC4)cc(-c4cn[nH]c4)cc3s1)CO2 (centres undefined) | –
> 75 | 7.18 | < 5.30 | 6.44 | CN(C)CCOc1cc(-c2cn[nH]c2)cc2sc(C3COc4ccccc4C3)nc12 (centres undefined) | –
– | 6.30 | < 5.30 | – | c1ccc2c(c1)CC(c1nc3c(OCCC4CCOC4)cc(-c4cn[nH]c4)cc3s1)CO2 (centres undefined) | –
– | 7.03 | < 4.70 | – | Cc1ccc2c(c1)CC(c1nc3ccc(-c4cn[nH]c4)cc3s1)CO2 (centres undefined) | –
– | 7.42 | 5.71 | 5.83 | Fc1ccc2c(c1)CC(c1nc3ccc(-c4cn[nH]c4)cc3s1)CO2 (centres undefined) | –
– | 7.35 | < 4.70 | < 5.57 | COc1ccc2c(c1)CC(c1nc3ccc(-c4cn[nH]c4)cc3s1)CO2 (centres undefined) | –
– | 7.60 | 6.39 | – | Cc1n[nH]cc1-c1ccc2nc(C3COc4ccccc4C3)sc2c1 (centres undefined) | –
– | 7.23 | < 5.30 | 5.83 | COC(=O)c1ccc2c(c1)CC(c1nc3ccc(-c4cn[nH]c4)cc3s1)CO2 (centres undefined) | –
– | 7.49 | < 5.30 | 5.91 | COc1cc(-c2cn[nH]c2)cc2sc(C3COc4ccccc4C3)nc12 (centres undefined) | –
30 | 7.96 | 6.47 | 5.81 | c1ccc2c(c1)CC(c1nc3ccc(-c4cn[nH]c4)cc3s1)CO2 (centres undefined) | –
– | 7.12 | 5.75 | – | Clc1ccc2c(c1)CC(c1nc3ccc(-c4cn[nH]c4)cc3s1)CO2 (centres undefined) | –
